Reference: patent US9902736B2, “1-oxo/acylation-14-acylated oridonin derivative, preparation method therefor and application thereof” (HANGZHOU BENSHENG PHARMACEUTICAL CO., LTD., priority 2012, dated 2018)
≈ marks a conversion by molar mass, not a printed value. Like-named read-outs stand apart in the source and are kept apart here.

Tests used:
Kasumi-1 = assay: Leukemia cell growth inhibition, MTT, 72 h; format: cell-based; conditions: Homo sapiens
Source text: (§1) Leukemia cell lines: leukemia cell lines: K562/adr (drug-resistant, chronic myeloid leukemia, CML), NB4 (acute promyelocytic leukemia, AML), Kasumi-1 (acute myeloid leukemia M2 type, AML-M2), Jurkat (acute lymphoblastic leukemia, ALL), all of which were donated by Cancer Research Institute of Zhejiang University, China; and H9 (acute lymphoblastic leukemia, ALL), which was purchased from China Center for Type Culture Collection.
(§2) 6000 well-growing leukemia cells were obtained and inoculated into wells of a 96-well cell culture plate. […] On the next day, the 1-oxo/acylated-14-acylated oridonin derivatives of different concentrations were added and mixed uniformly. The plate was placed in a carbon dioxide cell incubator (5% CO2) at 37° C. and was incubated for 72 hours. Then the viable cell concentration was determined by MTT method.

K562/ADR = assay: Leukemia cell growth inhibition, MTT, 72 h; format: cell-based; conditions: Homo sapiens
Source text: as §1, §2

RPMI 8226 = assay: Multiple myeloma cell growth inhibition, MTT, 72 h; format: cell-based; conditions: Homo sapiens
Procedure: Multiple myeloma cell lines: RPMI8226 (multiple myeloma), purchased from Fuxiang Bio-tech Co. Ltd., Shanghai, China.
as §2, with “well-growing” for “well-growing leukemia”, “and” for “and was”

Hela = assay: Solid tumor cell growth inhibition, MTT, 72 h; format: cell-based, human; conditions: for IC50 / IC90: Homo sapiens, HeLa, 72 h, MTT
Procedure: (§3) 6000 well-growing human solid tumor cells were obtained and inoculated into wells of a 96-well cell culture plate. The culture medium was DMEM High Glucose cell culture medium containing 10% fetal bovine serum. The plate was placed in a carbon dioxide cell incubator (5% CO2) at 37° C. and incubated for 24 hours. After added with 1-oxo/acylated-14-acylated oridonin derivatives of different concentration and mixed uniformly, the plate was placed in a carbon dioxide cell incubator (5% CO2) at 37° C. and incubated for 72 hours. Then the viable cell concentration was determined by MTT method.

CNE = assay: Solid tumor cell growth inhibition, MTT, 72 h; format: cell-based, human; conditions: for IC50 / IC90: Homo sapiens, CNE, 72 h, MTT
Procedure: as §3

Hep-2 = assay: Solid tumor cell growth inhibition, MTT, 72 h; format: cell-based, human; conditions: for IC50 / IC90: Homo sapiens, HEp-2, 72 h, MTT
Procedure: as §3

MGC-803 = assay: Solid tumor cell growth inhibition, MTT, 72 h; format: cell-based, human; conditions: for IC50 / IC90: Homo sapiens, MGC-803, 72 h, MTT
Procedure: as §3

NB4 = assay: Leukemia cell growth inhibition, MTT, 72 h; format: cell-based, human; conditions: for IC50 / IC90: Homo sapiens, NB-4, 72 h, MTT
Source text: as §1, §2

H9 = assay: Leukemia cell growth inhibition, MTT, 72 h; format: cell-based, human; conditions: for IC50 / IC90: Homo sapiens, H9, 72 h, MTT
Source text: as §1, §2

Jurkat = assay: Leukemia cell growth inhibition, MTT, 72 h; format: cell-based, human; conditions: for IC50 / IC90: Homo sapiens, Jurkat, 72 h, MTT
Source text: as §1, §2

RKO = assay: Solid tumor cell growth inhibition, MTT, 72 h; format: cell-based; conditions: Homo sapiens
Procedure: as §3

U87-MG = assay: Solid tumor cell growth inhibition, MTT, 72 h; format: cell-based; conditions: Homo sapiens, U-87 MG
Procedure: as §3

SK-OV-3 = assay: Solid tumor cell growth inhibition, MTT, 72 h; format: cell-based; conditions: Homo sapiens; for IC50: read-out: IC50 SK-OV-3; for IC90: read-out: IC90 SK-OV-3
Procedure: as §3

PC-3 = assay: Solid tumor cell growth inhibition, MTT, 72 h; format: cell-based; conditions: Homo sapiens
Procedure: as §3

A549 = assay: Solid tumor cell growth inhibition, MTT, 72 h; format: cell-based; conditions: Homo sapiens
Procedure: as §3

Becap-37 = assay: Solid tumor cell growth inhibition, MTT, 72 h; format: cell-based; conditions: Homo sapiens
Procedure: as §3

CaEs-17 = assay: Solid tumor cell growth inhibition, MTT, 72 h; format: cell-based; conditions: Homo sapiens, CaEs17
Procedure: as §3

Hep G2 = assay: Solid tumor cell growth inhibition, MTT, 72 h; format: cell-based; conditions: Homo sapiens, HepG2
Procedure: as §3

PANC-1 = assay: Solid tumor cell growth inhibition, MTT, 72 h; format: cell-based; conditions: Homo sapiens
Procedure: as §3

MG-63 = assay: Solid tumor cell growth inhibition, MTT, 72 h; format: cell-based; conditions: Homo sapiens
Procedure: as §3

## C=C1C(=O)[C@]23[C@H](OC(=O)c4ccc(OC)cc4)[C@H]1CC[C@H]2[C@@]12CO[C@@]3(O)[C@@H](O)[C@@H]1C(C)(C)CCC2=O [BS-OR-005]
Kasumi-1
  IC50: 0.43 µg/mL (≈ 0.866 µM)
  IC90: 1.05 µg/mL (≈ 2.11 µM)
K562/ADR
  IC50: 0.4 µg/mL (≈ 0.806 µM)
  IC90: 1.44 µg/mL (≈ 2.9 µM)
RPMI 8226
  IC50: 0.26 µg/mL (≈ 0.524 µM)
  IC90: 0.96 µg/mL (≈ 1.93 µM)
Hela
  IC50: 1.16 µg/mL (≈ 2.34 µM)
  IC90: 3.4 µg/mL (≈ 6.85 µM)
CNE
  IC50: 1.09 µg/mL (≈ 2.2 µM)
  IC90: 4.45 µg/mL (≈ 8.96 µM)
Hep-2
  IC50: 1.3 µg/mL (≈ 2.62 µM)
  IC90: 5.6 µg/mL (≈ 11.3 µM)
MGC-803
  IC50: 0.7 µg/mL (≈ 1.41 µM)
  IC90: 5.4 µg/mL (≈ 10.9 µM)
NB4
  IC50: 0.07 µg/mL (≈ 0.141 µM)
  IC90: 0.49 µg/mL (≈ 0.987 µM)
H9
  IC50: 0.38 µg/mL (≈ 0.765 µM)
  IC90: 0.92 µg/mL (≈ 1.85 µM)
Jurkat
  IC50: 0.44 µg/mL (≈ 0.886 µM)
  IC90: 2.88 µg/mL (≈ 5.8 µM)
Jurkat; as compared with oridonin
  anti-Jurkat cell line activity increased: ~4 fold
RKO
  IC50: 0.31 µg/mL (≈ 0.624 µM)
  IC90: 0.84 µg/mL (≈ 1.69 µM)
U87-MG
  IC50: 0.7 µg/mL (≈ 1.41 µM)
  IC90: 2.16 µg/mL (≈ 4.35 µM)
SK-OV-3; SK-OV-3, 72 h, MTT
  IC50: 1.22 µg/mL (≈ 2.46 µM)
  IC90: 3.16 µg/mL (≈ 6.36 µM)
PC-3
  IC50: 1.22 µg/mL (≈ 2.46 µM)
  IC90: 3.16 µg/mL (≈ 6.36 µM)
A549
  IC50: 1.71 µg/mL (≈ 3.44 µM)
  IC90: 4.31 µg/mL (≈ 8.68 µM)
Becap-37
  IC50: 0.7 µg/mL (≈ 1.41 µM)
  IC90: 2.78 µg/mL (≈ 5.6 µM)
CaEs-17
  IC50: 0.81 µg/mL (≈ 1.63 µM)
  IC90: 3.03 µg/mL (≈ 6.1 µM)
Hep G2
  IC50: 0.84 µg/mL (≈ 1.69 µM)
  IC90: 5.27 µg/mL (≈ 10.6 µM)
PANC-1
  IC50: 1.26 µg/mL (≈ 2.54 µM)
  IC90: 4.91 µg/mL (≈ 9.89 µM)
MG-63
  IC50: 0.28 µg/mL (≈ 0.564 µM)
  IC90: 0.75 µg/mL (≈ 1.51 µM)

## C=C1C(=O)[C@]23[C@H](OC(=O)c4ccc(C)cc4)[C@H]1CC[C@H]2[C@@]12CO[C@@]3(O)[C@@H](O)[C@@H]1C(C)(C)CCC2OC(C)=O (stereo partly shown) [BS-OR-090]
Kasumi-1
  IC50: 0.37 µg/mL (≈ 0.705 µM)
  IC90: 1.3 µg/mL (≈ 2.48 µM)
K562/ADR
  IC50: 0.36 µg/mL (≈ 0.686 µM)
  IC90: 1.48 µg/mL (≈ 2.82 µM)
RPMI 8226
  IC50: 0.2 µg/mL (≈ 0.381 µM)
  IC90: 1.61 µg/mL (≈ 3.07 µM)
Hela
  IC50: 0.96 µg/mL (≈ 1.83 µM)
  IC90: 3.67 µg/mL (≈ 7 µM)
Hela; in comparison with oridonin
  anti-Hela activity increased: more than 5 fold
CNE
  IC50: 0.98 µg/mL (≈ 1.87 µM)
  IC90: 4.59 µg/mL (≈ 8.75 µM)
CNE; in comparison with oridonin
  anti-CNE activity increased: ~6 fold
Hep-2
  IC50: 0.96 µg/mL (≈ 1.83 µM)
  IC90: 5.71 µg/mL (≈ 10.9 µM)
Hep-2; in comparison with oridonin
  anti-Hep-2 activity increased: ~5 fold
MGC-803
  IC50: 0.52 µg/mL (≈ 0.991 µM)
  IC90: 6.3 µg/mL (≈ 12 µM)
MGC-803; in comparison with oridonin
  anti-MGC-803 activity increased: ~10 fold
NB4
  IC50: 0.05 µg/mL (≈ 0.0953 µM)
  IC90: 0.94 µg/mL (≈ 1.79 µM)
NB4; as compared with oridonin
  anti-NB4 cell line activity increased: 15 fold
H9
  IC50: 0.06 µg/mL (≈ 0.114 µM)
  IC90: 0.37 µg/mL (≈ 0.705 µM)
H9; as compared with oridonin
  anti-H9 cell line activity increased: 22 fold
Jurkat
  IC50: 0.4 µg/mL (≈ 0.762 µM)
  IC90: 2.62 µg/mL (≈ 4.99 µM)
RKO
  IC50: 0.35 µg/mL (≈ 0.667 µM)
  IC90: 0.88 µg/mL (≈ 1.68 µM)
U87-MG
  IC50: 0.51 µg/mL (≈ 0.972 µM)
  IC90: 1.67 µg/mL (≈ 3.18 µM)
SK-OV-3; SK-OV-3, 72 h
  IC50: 1.35 µg/mL (≈ 2.57 µM)
  IC90: 5.37 µg/mL (≈ 10.2 µM)
PC-3
  IC50: 1.35 µg/mL (≈ 2.57 µM)
  IC90: 5.37 µg/mL (≈ 10.2 µM)
A549
  IC50: 1.82 µg/mL (≈ 3.47 µM)
  IC90: 6.27 µg/mL (≈ 12 µM)
Becap-37
  IC50: 0.99 µg/mL (≈ 1.89 µM)
  IC90: 3.01 µg/mL (≈ 5.74 µM)
CaEs-17
  IC50: 0.9 µg/mL (≈ 1.72 µM)
  IC90: 3.65 µg/mL (≈ 6.96 µM)
Hep G2
  IC50: 0.74 µg/mL (≈ 1.41 µM)
  IC90: 7.09 µg/mL (≈ 13.5 µM)
PANC-1
  IC50: 1.31 µg/mL (≈ 2.5 µM)
  IC90: 4.41 µg/mL (≈ 8.41 µM)
MG-63
  IC50: 0.36 µg/mL (≈ 0.686 µM)
  IC90: 0.92 µg/mL (≈ 1.75 µM)

## C=C1C(=O)[C@]23[C@H](OC(=O)C4CC4)[C@H]1CC[C@H]2[C@@]12CO[C@@]3(O)[C@@H](O)[C@@H]1C(C)(C)CCC2=O [BS-OR-017]
Kasumi-1
  IC50: 0.69 µg/mL (≈ 1.6 µM)
  IC90: 1.7 µg/mL (≈ 3.95 µM)
K562/ADR
  IC50: 0.52 µg/mL (≈ 1.21 µM)
  IC90: 1.9 µg/mL (≈ 4.41 µM)
RPMI 8226
  IC50: 0.5 µg/mL (≈ 1.16 µM)
  IC90: 1.88 µg/mL (≈ 4.37 µM)
Hela
  IC50: 1.35 µg/mL (≈ 3.14 µM)
  IC90: 3.86 µg/mL (≈ 8.97 µM)
CNE
  IC50: 1.13 µg/mL (≈ 2.62 µM)
  IC90: 4.96 µg/mL (≈ 11.5 µM)
Hep-2
  IC50: 1.62 µg/mL (≈ 3.76 µM)
  IC90: 6.93 µg/mL (≈ 16.1 µM)
MGC-803
  IC50: 0.91 µg/mL (≈ 2.11 µM)
  IC90: 4.16 µg/mL (≈ 9.66 µM)
NB4
  IC50: 0.14 µg/mL (≈ 0.325 µM)
  IC90: 0.82 µg/mL (≈ 1.9 µM)
H9
  IC50: 0.53 µg/mL (≈ 1.23 µM)
  IC90: 0.98 µg/mL (≈ 2.28 µM)
Jurkat
  IC50: 0.92 µg/mL (≈ 2.14 µM)
  IC90: 5.63 µg/mL (≈ 13.1 µM)
RKO
  IC50: 0.6 µg/mL (≈ 1.39 µM)
  IC90: 1.91 µg/mL (≈ 4.44 µM)
U87-MG
  IC50: 1.24 µg/mL (≈ 2.88 µM)
  IC90: 3.64 µg/mL (≈ 8.46 µM)
SK-OV-3; SK-OV-3, 72 h, MTT
  IC50: 1.99 µg/mL (≈ 4.62 µM)
  IC90: 3.92 µg/mL (≈ 9.11 µM)
PC-3
  IC50: 1.99 µg/mL (≈ 4.62 µM)
  IC90: 3.92 µg/mL (≈ 9.11 µM)
A549
  IC50: 2.93 µg/mL (≈ 6.81 µM)
  IC90: 6.29 µg/mL (≈ 14.6 µM)
Becap-37
  IC50: 1.13 µg/mL (≈ 2.62 µM)
  IC90: 4.58 µg/mL (≈ 10.6 µM)
CaEs-17
  IC50: 1.32 µg/mL (≈ 3.07 µM)
  IC90: 5.89 µg/mL (≈ 13.7 µM)
Hep G2
  IC50: 1.61 µg/mL (≈ 3.74 µM)
  IC90: 8.04 µg/mL (≈ 18.7 µM)
PANC-1
  IC50: 1.96 µg/mL (≈ 4.55 µM)
  IC90: 5.76 µg/mL (≈ 13.4 µM)
MG-63
  IC50: 0.47 µg/mL (≈ 1.09 µM)
  IC90: 1.8 µg/mL (≈ 4.18 µM)
